Results as given in the supplement of paper PMC10307832.

Assays:
Assay in all cases: relative viability (nuclei count vs DMSO), 5 days (fraction); higher = more cells survive
[1] = compound: CC1CC(=O)N(C2=CN=C(N=C2N1C3CCCC3)NC4=C(C=C(C=C4)C(=O)NC5CCN(CC5)C)OC)C [NPK76-II-72-1] + Cc1nc(Nc2ncc(C(=O)Nc3c(C)cccc3Cl)s2)cc(N2CCN(CCO)CC2)n1 [Dasatinib] (partner 0.075 µM)
Procedure, shortened: (§1)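 Relative viability equals treated-well nuclei counts divided by vehicle-well nuclei counts. Counts came from 4× images of lung cancer cell lines grown in 1536-well plates for 5 days after pin-tool dosing on the day after seeding. Dosing used one drug alone or a fixed anchor-drug dose plus five library-drug doses (not always all listed) in √10 steps, and values are medians of duplicate plates.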

[2] = compound: CC1CC(=O)N(C2=CN=C(N=C2N1C3CCCC3)NC4=C(C=C(C=C4)C(=O)NC5CCN(CC5)C)OC)C [NPK76-II-72-1] + C[C@]1(O)C[C@@H](c2nc(-c3ccc4ccc(-c5ccccc5)nc4c3)c3c(N)nccn32)C1 [Linsitinib] (partner 1 µM)
Procedure, shortened: as §1

[3] = compound: CC1CC(=O)N(C2=CN=C(N=C2N1C3CCCC3)NC4=C(C=C(C=C4)C(=O)NC5CCN(CC5)C)OC)C [NPK76-II-72-1] + Nc1nc2[nH]cc(CCc3ccc(C(=O)N[C@@H](CCC(=O)O)C(=O)O)cc3)c2c(=O)[nH]1 [Pemetrexed] (partner 0.2 µM)
Procedure, shortened: as §1

BI-2536 + Lapatinib = compound: CC[C@@H]1C(=O)N(C)c2cnc(Nc3ccc(C(=O)NC4CCN(C)CC4)cc3OC)nc2N1C1CCCC1 [BI-2536] + CS(=O)(=O)CCNCc1ccc(-c2ccc3ncnc(Nc4ccc(OCc5cccc(F)c5)c(Cl)c4)c3c2)o1 [Lapatinib] (partner 2 µM)
Procedure, shortened: as §1

Cell Line | relative viability ([1]; first compound 0.01 µM) | relative viability ([1]; first compound 0.03162 µM) | relative viability ([1]; first compound 0.1 µM) | relative viability ([1]; first compound 0.3162 µM) | relative viability ([1]; first compound 1 µM) | relative viability ([2]; first compound 0.01 µM) | relative viability ([2]; first compound 0.03162 µM) | relative viability ([2]; first compound 0.3162 µM) | relative viability ([2]; first compound 1 µM) | relative viability ([3]; first compound 0.01 µM) | relative viability ([3]; first compound 0.03162 µM) | relative viability ([3]; first compound 0.1 µM) | relative viability ([3]; first compound 0.3162 µM) | relative viability ([3]; first compound 1 µM) | relative viability (BI-2536 + Lapatinib; first compound 0.01 µM) | relative viability (BI-2536 + Lapatinib; first compound 0.03162 µM) | relative viability (BI-2536 + Lapatinib; first compound 0.1 µM) | relative viability (BI-2536 + Lapatinib; first compound 0.3162 µM) | relative viability (BI-2536 + Lapatinib; first compound 1 µM) | relative viability ([2]; first compound 0.1 µM)
NCI-H647 | 0.215 | 0.212 | 0.131 | 0.146 | 0.169 | 1.2 | 1.28 | 1.07 | 1.14 | 0.189 | 0.174 | 0.171 | 0.172 | 0.198 | 1.11 | 0.737 | 0.104 | 0.0701 | 0.129 | –
NCI-H2023 | 0.511 | 0.63 | 0.605 | 0.583 | 0.603 | 0.488 | 0.713 | 0.56 | 0.655 | 0.229 | 0.228 | 0.236 | 0.253 | 0.268 | 0.963 | 0.613 | 0.0796 | 0.0761 | 0.142 | 0.716
NCI-H520 | 0.203 | 0.172 | 0.178 | 0.187 | 0.252 | 0.753 | 0.83 | 0.922 | 1.07 | 0.575 | 0.741 | 0.427 | 0.65 | 0.825 | 0.686 | 0.471 | 0.154 | 0.193 | 0.164 | 0.804
RERF-LC-KJ | 0.818 | 0.886 | 0.722 | 0.732 | 0.808 | 0.902 | 0.876 | 0.771 | 0.923 | 0.469 | 0.505 | 0.46 | 0.439 | 0.506 | 0.862 | 0.842 | 0.775 | 0.179 | 0.206 | 0.802
A-427 | 0.659 | 0.822 | 0.688 | 0.674 | 0.726 | 1.1 | 1.09 | 1.14 | 1.13 | 0.903 | 0.991 | 0.978 | 0.965 | 1.01 | 0.905 | 1.08 | 1 | 0.969 | 0.135 | 1.15
NCI-H1792 | 0.799 | – | 0.842 | 0.66 | 0.726 | 0.615 | 0.629 | 0.492 | 0.591 | – | 0.961 | 0.627 | 0.636 | 1.06 | 0.93 | 0.751 | 1.09 | 0.186 | 0.0746 | 0.52
SK-LU-1 | 0.188 | 0.181 | 0.207 | 0.202 | 0.172 | 1.07 | 1.09 | 1.02 | 1.33 | 0.972 | 1.05 | 0.925 | 1.03 | 1.04 | 0.815 | 0.715 | 0.495 | 0.252 | 0.189 | 1.16
PC-3 [JPC-3] | 0.937 | 1.02 | 0.916 | 0.973 | 1.07 | 0.927 | 0.91 | 0.935 | 0.963 | 0.963 | – | 1.06 | 1.18 | 1.1 | 0.462 | 0.456 | 0.441 | 0.451 | 0.233 | 0.936
EMC-BAC-2 | 0.345 | 0.295 | 0.346 | 0.333 | 0.367 | 0.814 | 0.848 | 0.747 | 0.793 | 0.451 | 0.497 | 0.446 | 0.451 | 0.453 | 0.881 | 0.837 | 0.767 | 0.182 | 0.154 | 0.848
LK-2 | 0.299 | 0.275 | 0.322 | 0.233 | 0.244 | 0.543 | 0.69 | 0.415 | 0.743 | 0.228 | 0.292 | 0.334 | 0.235 | 0.271 | 0.883 | 0.81 | 0.336 | 0.163 | 0.199 | 0.729
NCI-H2126 | 0.594 | 0.591 | 0.58 | 0.607 | 0.709 | 0.756 | 0.777 | 0.671 | 0.752 | 0.678 | 0.809 | 0.617 | 0.672 | 0.736 | 0.782 | 0.689 | 0.725 | 0.619 | 0.267 | 0.701
NCI-H3122 | 0.796 | 0.802 | 0.76 | 0.697 | 0.956 | 0.945 | 1.03 | 1.03 | 1.05 | 0.209 | 0.191 | 0.181 | 0.195 | 0.209 | 0.943 | 1.07 | 0.296 | 0.258 | 0.228 | 1.09
NCI-H1975 | 0.336 | 0.402 | 0.359 | 0.439 | 0.382 | 0.956 | 0.921 | 1.01 | 1.03 | 0.261 | 0.288 | 0.274 | 0.297 | 0.303 | 0.853 | 0.622 | 0.421 | 0.153 | 0.175 | 0.913
NCI-H1944 | 0.205 | 0.219 | 0.224 | 0.221 | 0.226 | 1.16 | 1.09 | 1.06 | 1.28 | 0.564 | 0.665 | 0.664 | 0.571 | 0.734 | 0.848 | 0.832 | 0.754 | 0.678 | 0.161 | 1.21
LU99A | 0.404 | 0.505 | 0.51 | 0.442 | 0.674 | 0.57 | 0.522 | 0.479 | 0.518 | 0.181 | 0.172 | 0.205 | 0.163 | 0.22 | 0.889 | 1.07 | 0.193 | 0.202 | 0.211 | 0.584
SW 1573 | 0.46 | 0.592 | 0.556 | 0.589 | 0.509 | 0.808 | 0.794 | 0.728 | 0.681 | 0.751 | 0.829 | 0.821 | 0.849 | 0.824 | 1.1 | 1.2 | 1.12 | 0.186 | 0.18 | 0.721
